≈ marks a conversion by molar mass, not a printed value.

One data set has as its target T1, Nitric oxide synthase, inducible (Mus musculus, UniProt P29477).
T1 sequence (P29477 whole entry): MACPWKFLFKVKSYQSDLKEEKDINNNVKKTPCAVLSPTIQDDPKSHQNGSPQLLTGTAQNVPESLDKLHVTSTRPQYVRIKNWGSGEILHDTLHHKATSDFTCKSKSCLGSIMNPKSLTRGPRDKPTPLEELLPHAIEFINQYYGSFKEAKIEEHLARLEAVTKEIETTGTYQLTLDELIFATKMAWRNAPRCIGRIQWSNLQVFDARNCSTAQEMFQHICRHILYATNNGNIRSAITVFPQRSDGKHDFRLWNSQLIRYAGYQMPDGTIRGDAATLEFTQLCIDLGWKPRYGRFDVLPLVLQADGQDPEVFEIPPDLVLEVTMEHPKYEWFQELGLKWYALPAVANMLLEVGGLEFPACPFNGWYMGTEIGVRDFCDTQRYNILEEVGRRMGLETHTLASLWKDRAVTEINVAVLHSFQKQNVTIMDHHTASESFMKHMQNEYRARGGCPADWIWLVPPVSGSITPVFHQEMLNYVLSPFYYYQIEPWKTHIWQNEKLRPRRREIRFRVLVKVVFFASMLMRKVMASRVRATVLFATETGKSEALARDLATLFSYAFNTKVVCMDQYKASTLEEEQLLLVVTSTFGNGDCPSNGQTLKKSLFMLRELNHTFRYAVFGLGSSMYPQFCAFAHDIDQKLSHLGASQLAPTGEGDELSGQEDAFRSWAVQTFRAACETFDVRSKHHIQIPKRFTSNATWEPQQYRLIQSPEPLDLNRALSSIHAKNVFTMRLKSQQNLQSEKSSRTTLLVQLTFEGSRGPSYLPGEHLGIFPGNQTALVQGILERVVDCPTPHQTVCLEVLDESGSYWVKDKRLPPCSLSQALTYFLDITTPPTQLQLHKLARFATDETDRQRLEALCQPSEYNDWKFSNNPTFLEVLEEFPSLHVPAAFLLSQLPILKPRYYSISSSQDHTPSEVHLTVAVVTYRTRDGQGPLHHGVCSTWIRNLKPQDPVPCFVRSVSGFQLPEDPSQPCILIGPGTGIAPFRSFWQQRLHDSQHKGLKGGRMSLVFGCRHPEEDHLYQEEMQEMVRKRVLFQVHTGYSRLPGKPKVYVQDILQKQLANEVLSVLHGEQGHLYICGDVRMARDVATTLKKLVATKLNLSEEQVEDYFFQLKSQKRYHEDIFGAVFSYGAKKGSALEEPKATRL
Briefly: Inhibition of iNOS-mediated nitric oxide production in LPS-stimulated mouse RAW264.7 cells after 24 hrs by Griess reaction analysis. Type of data set: cell-based.
Conditions: not given
The term IC50 denotes the concentration that inhibits the measured activity by half. `C/C(=C\CC[C@@H](C)[C@H]1CC[C@@]2(C)C3=C([C@H](O)C[C@]12C)[C@@]1(C)CCC(=O)C(C)(C)[C@@H]1CC3=O)C(=O)O` gave an IC50 of 5 µM.

On to `COc1cc(CCC(=O)O)oc(=O)c1`, for which the IC50 was greater than 20 µM.

Compound `C/C(=C\CC[C@@H](C)[C@H]1CC[C@@]2(C)C3=C(C(=O)C[C@]12C)[C@@]1(C)CCC(=O)C(C)(C)[C@@H]1CC3=O)C(=O)O` returned a half-inhibitory concentration (IC50) of 5 µM.

`COC(=O)C(C)CC(=O)C[C@@H](C)[C@H]1CC(=O)[C@@]2(C)C3=C(C(=O)C(=O)[C@]12C)[C@@]1(C)CCC(=O)C(C)(C)[C@@H]1CC3=O` (some centres not stated) had a half-inhibitory concentration (IC50) of 8.9 µM.

Consider `CCOC(=O)C(C)CC(=O)C[C@@H](C)[C@H]1CC(=O)[C@@]2(C)C3=C(C(=O)C(=O)[C@]12C)[C@@]1(C)CCC(=O)C(C)(C)[C@@H]1CC3=O` (some centres not stated), for which the midpoint of inhibition, the IC50, lay at 6.2 µM.

In the case of `CC(=O)O[C@H]1C[C@H]([C@H](C)CC(=O)CC(C)C(=O)O)[C@@]2(C)CC(=O)C3=C(CC[C@H]4C(C)(C)C(=O)CC[C@]34C)[C@]12C` (some centres not stated), the IC50 worked out at 4.9 µM.

Regarding `CC(CC(=O)C[C@@H](C)C1=CC(=O)[C@@]2(C)C3=C(C(=O)C[C@]12C)[C@@]1(C)CCC(=O)C(C)(C)[C@@H]1C[C@@H]3O)C(=O)O` (some centres not stated), the IC50 is greater than 20 µM.

The compound `COCC1(O)OC(=O)C=C1C` (racemic) yielded an IC50 greater than 20 µM.

`CCOC(=O)CC[C@@H](C)[C@H]1CC(=O)[C@@]2(C)C3=C(C(=O)C[C@]12C)[C@@]1(C)CCC(=O)C(C)(C)[C@@H]1C[C@@H]3O` [ETHYL LUCIDENATE A] returned an IC50 of 10.8 µM.

As to `CCOC(=O)CC[C@@H](C)[C@H]1CC(=O)[C@@]2(C)C3=C(C(=O)C[C@]12C)[C@@]1(C)CCC(=O)C(C)(C)[C@@H]1CC3=O` [ETHYL LUCIDENATE F], the IC50 was greater than 20 µM.

The test system of another data set is HL-60. The data set can be described thus: Cytotoxicity against human HL60 cells assessed as inhibition of cell proliferation after 24 hrs. The class given is functional, cell-based. The following applies: HL-60, 24 h.
In the case of `CCOC(=O)CC[C@@H](C)[C@H]1CC(=O)[C@@]2(C)C3=C(C(=O)C[C@]12C)[C@@]1(C)CCC(=O)C(C)(C)[C@@H]1C[C@@H]3O` [ETHYL LUCIDENATE A], the IC50 came to 30 µg/mL (≈ 61.6 µM).

The subject of a further data set is RAW264.7. The data set can be described thus: Cytotoxicity against LPS-stimulated mouse RAW264.7 cells at 20 ug/ml.
Conditions: not given
The class given is cell-based.
In the case of `C/C(=C\CC[C@@H](C)[C@H]1CC[C@@]2(C)C3=C([C@H](O)C[C@]12C)[C@@]1(C)CCC(=O)C(C)(C)[C@@H]1CC3=O)C(=O)O`, the Activity entry was “Non-toxic”.

As to `COc1cc(CCC(=O)O)oc(=O)c1`, the Activity result is “Non-toxic”.

For `C/C(=C\CC[C@@H](C)[C@H]1CC[C@@]2(C)C3=C(C(=O)C[C@]12C)[C@@]1(C)CCC(=O)C(C)(C)[C@@H]1CC3=O)C(=O)O`, the Activity result is on record as “Non-toxic”.

On to `COC(=O)C(C)CC(=O)C[C@@H](C)[C@H]1CC(=O)[C@@]2(C)C3=C(C(=O)C(=O)[C@]12C)[C@@]1(C)CCC(=O)C(C)(C)[C@@H]1CC3=O` (some centres not stated), for which the Activity result is listed as “Non-toxic”.

With `CCOC(=O)C(C)CC(=O)C[C@@H](C)[C@H]1CC(=O)[C@@]2(C)C3=C(C(=O)C(=O)[C@]12C)[C@@]1(C)CCC(=O)C(C)(C)[C@@H]1CC3=O` (some centres not stated), the Activity entry was “Non-toxic”.

As to `CC(=O)O[C@H]1C[C@H]([C@H](C)CC(=O)CC(C)C(=O)O)[C@@]2(C)CC(=O)C3=C(CC[C@H]4C(C)(C)C(=O)CC[C@]34C)[C@]12C` (some centres not stated), the Activity result is “Non-toxic”.

Consider `CC(CC(=O)C[C@@H](C)C1=CC(=O)[C@@]2(C)C3=C(C(=O)C[C@]12C)[C@@]1(C)CCC(=O)C(C)(C)[C@@H]1C[C@@H]3O)C(=O)O` (some centres not stated), for which the Activity result is listed as “Non-toxic”.

`COCC1(O)OC(=O)C=C1C` (racemic): the Activity result is listed as “Non-toxic”.

For the compound `CCOC(=O)CC[C@@H](C)[C@H]1CC(=O)[C@@]2(C)C3=C(C(=O)C[C@]12C)[C@@]1(C)CCC(=O)C(C)(C)[C@@H]1C[C@@H]3O` [ETHYL LUCIDENATE A], the Activity entry is “Non-toxic”.

On to `CCOC(=O)CC[C@@H](C)[C@H]1CC(=O)[C@@]2(C)C3=C(C(=O)C[C@]12C)[C@@]1(C)CCC(=O)C(C)(C)[C@@H]1CC3=O` [ETHYL LUCIDENATE F], for which the Activity result is “Non-toxic”.

A further data set relates to K562. Briefly: Cytotoxicity against human K562 cells assessed as inhibition of cell proliferation after 24 hrs. The class given is functional, cell-based. The following applies: K562, 24 h.
For `CCOC(=O)CC[C@@H](C)[C@H]1CC(=O)[C@@]2(C)C3=C(C(=O)C[C@]12C)[C@@]1(C)CCC(=O)C(C)(C)[C@@H]1C[C@@H]3O` [ETHYL LUCIDENATE A], the IC50 was 30 µg/mL (≈ 61.6 µM).

For the origin of these results see ChEMBL document CHEMBL2331431, “Anti-inflammatory lanostanoids and lactone derivatives from Antrodia camphorata” (J Nat Prod, 2013).
